# ChEMBL document CHEMBL5584231, “Rational design of a new short anticancer peptide with good potential for cancer treatment” (Eur J Med Chem, 2024)
# Residues, ends and D or L forms follow the SMILES beside them.
# Columns and labels:
# HeLa = assay: Cytotoxicity against human HeLa cells assessed as inhibition of cell growth incubated for 1 hr by MTT assay; assay type: functional, cell-based
# MCF7 = assay: Cytotoxicity against human MCF7 cells assessed as inhibition of cell growth incubated for 1 hr by MTT assay; assay type: functional, cell-based; settings: MCF7, 1 h
# [1] = Cytotoxicity against RG cells (unknown origin) assessed as inhibition of cell growth incubated for 1 hr by MTT assay; assay type: functional, cell-based
# A549 = assay: Cytotoxicity against human A549 cells assessed as inhibition of cell growth incubated for 1 hr by MTT assay; assay type: functional, cell-based; settings: A549, 1 h
# [2] = Cytotoxicity against HK-2 cells assessed as inhibition of cell growth incubated for 1 hr by MTT assay; assay type: toxicity, cell-based; settings: human
# [3] = Therapeutic index, ratio of HC10 for mouse RBC to IC50 for cytotoxicity against human HeLa cells; assay type: toxicity, cell-based; settings: mouse RBC and HeLa cells, read-out: TI
# [4] = Therapeutic index, ratio of HC10 for mouse RBC to IC50 for cytotoxicity against human MCF7 cells; assay type: toxicity, cell-based; settings: mouse RBC and MCF7 cells, read-out: TI
# [5] = Therapeutic index, ratio of HC10 for mouse RBC to IC50 for cytotoxicity against RG cells (unknown origin); assay type: toxicity, cell-based; settings: mouse RBC and RG cells, read-out: TI
# [6] = Therapeutic index, ratio of HC10 for mouse RBC to IC50 for cytotoxicity against human A549 cells; assay type: toxicity, cell-based; settings: mouse RBC and A549 cells, read-out: TI
Compound,IC50 (HeLa),IC50 (MCF7),IC50 [1],IC50 (A549),IC50 at 1 h [2],selectivity ratio [3],selectivity ratio [4],selectivity ratio [5],selectivity ratio [6]
CC(C)C[C@H](NC(=O)[C@H](CC(C)C)NC(=O)[C@H](CCCCN)NC(=O)[C@H](CCCCN)NC(=O)[C@H](CC(C)C)NC(=O)[C@H](CC(C)C)NC(=O)[C@H](CCCCN)NC(=O)[C@H](CCCCN)NC(=O)[C@H](CC(C)C)NC(=O)[C@H](CC(C)C)NC(=O)[C@H](CCCCN)NC(=O)[C@H](CC(C)C)NC(=O)[C@H](CC(C)C)NC(=O)[C@@H](N)CCCCN)C(N)=O (H-KLLKLLKKLLKKLL-NH2),11.9 µM,58.4 µM,34.3 µM,15.4 µM,28.1 µM,0.629,0.129,0.219,0.486
CC(C)C[C@H](NC(=O)[C@H](CC(C)C)NC(=O)[C@H](CCCCN)NC(=O)[C@H](CCCCN)NC(=O)[C@H](CC(C)C)NC(=O)[C@H](CC(C)C)NC(=O)[C@H](CCCCN)NC(=O)[C@H](CCCCN)NC(=O)[C@H](CC(C)C)NC(=O)[C@H](CC(C)C)NC(=O)[C@H](CCCCN)NC(=O)[C@H](CCC(=O)O)NC(=O)[C@H](CC(C)C)NC(=O)[C@@H](N)CC(C)C)C(N)=O (H-LLEKLLKKLLKKLL-NH2),7.05 µM,10.5 µM,11.1 µM,8.11 µM,11 µM,0.883,0.595,0.563,0.767
